Results published in US20190367516A1 (Bayer Pharma Aktiengesellschaft, priority 2015, published 2019).
Read-outs that look alike come from different tables or passages of the source.

Biological target: T1, human M2 receptor (Homo sapiens, UniProt P08172)
T1 sequence (P08172 1-466): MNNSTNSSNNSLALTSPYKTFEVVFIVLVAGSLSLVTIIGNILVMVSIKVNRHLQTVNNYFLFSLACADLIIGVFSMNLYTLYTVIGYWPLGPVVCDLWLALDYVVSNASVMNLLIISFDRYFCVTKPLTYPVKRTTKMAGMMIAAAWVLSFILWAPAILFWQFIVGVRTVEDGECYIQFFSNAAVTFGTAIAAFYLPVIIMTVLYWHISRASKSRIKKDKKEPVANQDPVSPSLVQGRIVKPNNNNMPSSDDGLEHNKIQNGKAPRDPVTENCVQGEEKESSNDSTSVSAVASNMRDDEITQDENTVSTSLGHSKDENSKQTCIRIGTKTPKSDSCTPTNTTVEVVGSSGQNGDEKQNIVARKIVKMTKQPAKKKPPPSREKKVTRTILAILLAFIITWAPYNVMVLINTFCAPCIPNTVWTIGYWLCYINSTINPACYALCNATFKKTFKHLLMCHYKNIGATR
Conditions: for Emax: read-out: Efficiency, boosting of the acetylcholine effect at EC20 acetylcholine concentration

[1] = Receptor activity EC50, M2-GIRK1/4 activation test, acetylcholine at EC20, allosteric potency, in some cases mean values from two or more determinations
[2] = Receptor activity EC50, allosteric potency at EC20 acetylcholine, M2-GIRK1/4 reporter cells, in some cases mean of two or more determinations

EC50 [1] | EC50 [2] | Emax (M2-GIRK1/4 reporter cells) | Compound | other results
– | 30 nM | 90.5% | O=C(N[C@@H](C1CC1)C(F)(F)F)c1cn(-c2c(F)cc(F)cc2F)c2nc(N3CCC(O)(CO)CC3)ccc2c1=O [Example 663, N-[(1 S)-1-Cyclopropyl-2,2,2-trifluoroethyl]-7-[4-hydroxy-4-(hydroxymethyl)piperidin-1-yl]-4-oxo-1-(2,4,6-trifluorophenyl)-1,4-dihydro-1,8-naphthyridine-3-carboxamide] | –
58 nM | – | – | O=C(NC1(C(F)(F)F)CC1)c1cn(-c2ccc(F)cc2F)c2nc(N3CC[C@H](F)C3)ccc2c1=O [Example 68, 1-(2,4-Difluorophenyl)-7-[(3S)-3-fluoropyrrolidin-1-yl]-4-oxo-N-[1-(trifluormethyl)cyclopropyl]-1,4-dihydro-1,8-naphthyridine-3-carboxamide] | –
163 nM | – | – | O=C(NC(c1c(F)cccc1F)C(F)(F)F)c1cn(-c2ccc(F)cc2F)c2nc(N3CCCC(O)C3=O)ccc2c1=O (single isomer, unassigned) [Example 251, 1-(2,4-Difluorophenyl)-N-[1-(2,6-difluorophenyl)-2,2,2-trifluoroethyl]-7-[3-hydroxy-2-oxopiperidin-1-yl]-4-oxo-1,4-dihydro-1,8-naphthyridine-3-carboxamide] | –
– | 19 nM | 100% | CO[C@@H]1CN(c2ccc3c(=O)c(C(=O)N[C@@H](C4CC4)C(F)(F)F)cn(-c4c(F)cc(F)cc4F)c3n2)C[C@H]1O (single isomer, unassigned) [Example 583] | –
– | 32 nM | – | O=C(NC12CC(C1)C2)c1cn(-c2c(F)cc(F)cc2F)c2nc(N3CC(O)C4(CC4)C3)ccc2c1=O (single isomer, unassigned) [Example 628, N-(Bicyclo[1.1.1]pent-1-yl)-7-[7-hydroxy-5-azaspiro[2.4]hept-5-yl]-4-oxo-1-(2,4,6-trifluorophenyl)-1,4-dihydro-1,8-naphthyridine-3-carboxamide] | –
– | 100 nM | 85.3% | CC[C@@H](NC(=O)c1cn(-c2ccc(F)cc2F)c2nc(N3C(=O)C(C)(C)C(O)C3C)ccc2c1=O)C(F)(F)F (stereo partly drawn) [Example 657, 1-(2,4-Difluorophenyl)-7-[4-hydroxy-3,3,5-trimethyl-2-oxopyrrolidin-1-yl]-4-oxo-N-[(2R)-1,1,1-trifluorobutan-2-yl]-1,4-dihydro-1,8-naphthyridine-3-carboxamide] | –
– | 89 nM | 100% | NC(=O)[C@@H]1CN(c2ccc3c(=O)c(C(=O)N[C@@H](C4CC4)C(F)(F)F)cn(-c4c(F)cc(F)cc4F)c3n2)C(=O)O1 [Example 668, 7-[(5S)-5-Carbamoyl-2-oxo-1,3-oxazolidin-3-yl]-N-[(1 S)-1-cyclopropyl-2,2,2-trifluoroethyl]-4-oxo-1-(2,4,6-trifluorophenyl)-1,4-dihydro-1,8-naphthyridine-3-carboxamide] | –
6 nM | – | – | CC(C)(CC(F)(F)F)NC(=O)c1cn(-c2c(F)cc(F)cc2Cl)c2nc(N3C[C@@H](O)[C@H](O)C3)ccc2c1=O (single isomer, unassigned) [Example 392] | –
138 nM | – | – | CC[C@@H](NC(=O)c1cn(-c2ccc(F)cc2F)c2nc(N3C[C@@H](C(=O)OC)OC3=O)ccc2c1=O)C(F)(F)F [Example 257, Methyl (5S)-3-[8-(2,4-difluorophenyl)-5-oxo-6-{[(2R)-1,1,1-trifluorobutan-2-yl]carbamoyl}-5,8-dihydro-1,8-naphthyridin-2-yl]-2-oxo-1,3-oxazolidine-5-carboxylate] | –
91 nM | – | – | O=C(NC12CC3CC(CC(C3)C1)C2)c1cn(-c2ccc(F)cc2F)c2nc(N3CCOC(CO)C3)ccc2c1=O (racemic) [Example 118, rac-1-(2,4-Difluorophenyl)-7-[2-(hydroxymethyl)morpholin-4-yl]-4-oxo-N-(tricyclo[3.3.1.1^3,7]dec-1-yl)-1,4-dihydro-1,8-naphthyridine-3-carboxamide] | –
– | 7 nM | 88% | CC(NC(=O)c1cn(-c2c(F)cc(F)cc2F)c2nc(N3C[C@@H](O)CC3=O)ccc2c1=O)(C1CC1)C(F)(F)F (single isomer, unassigned) [Example 509] | –
– | 63 nM | 100% | CC[C@@H](NC(=O)c1cn(-c2c(F)cccc2F)c2nc(N3CCNC3=O)ccc2c1=O)C(F)(F)F [Example 638, 1-(2,6-Difluorophenyl)-4-oxo-7-(2-oxoimidazolidin-1-yl)-N-[(2R)-1,1,1-trifluorobutan-2-yl]-1,4-dihydro-1,8-naphthyridine-3-carboxamide] | –
– | 61 nM | 92% | CC[C@@H](NC(=O)c1cn(-c2ccc(F)cc2F)c2nc(N3C(=O)NCC3C)ccc2c1=O)C(F)(F)F (stereo partly drawn) [Example 434, 1-(2,4-Difluorophenyl)-7-[5-methyl-2-oxoimidazolidin-1-yl]-4-oxo-N-[(2R)-1,1,1-trifluorobutan-2-yl]-1,4-dihydro-1,8-naphthyridine-3-carboxamide] | –
210 nM | – | – | CC[C@@H](NC(=O)c1cn(-c2ccccc2C(F)(F)F)c2nc(N3C[C@@H](O)CC3=O)ccc2c1=O)C(F)(F)F (single isomer, unassigned) [Example 269] | –
– | 4 nM | – | CCC(NC(=O)c1cn(-c2c(F)cc(F)cc2F)c2nc(N3C[C@@H](O)CC3=O)ccc2c1=O)C(C)C (single isomer, unassigned) [Example 486] | Efficiency (boosting of the acetylcholine effect at EC20 acetylcholine concentration, M2-GIRK1/4 reporter cells): 100.0%
108 nM | – | – | CCCC(NC(=O)c1cn(-c2ccc(F)cc2F)c2nc(NCCF)ccc2c1=O)C(F)(F)F (racemic) [Example 86, rac-1-(2,4-Difluorophenyl)-7-[(2-fluoroethyl)amino]-4-oxo-N-[(2R)-1,1,1-trifluoropentan-2-yl]-1,4-dihydro-1,8-naphthyridine-3-carboxamide] | –
56 nM | – | – | O=C(NC(c1ccccc1Cl)C(F)(F)F)c1cn(-c2ccc(F)cc2F)c2nc(N3CC[C@@H](O)C3=O)ccc2c1=O (stereo partly drawn) [Example 299, N-[1-(2-Chlorophenyl)-2,2,2-trifluoroethyl]-1-(2,4-difluorophenyl)-7-[(3R)-3-hydroxy-2-oxopyrrolidin-1-yl]-4-oxo-1,4-dihydro-1,8-naphthyridine-3-carboxamide] | –
25 nM | – | – | CC[C@H](NC(=O)c1cn(-c2c(F)cc(F)cc2F)c2nc(N3CCNC3=O)ccc2c1=O)C(F)(F)F [Example 343, 4-Oxo-7-(2-oxoimidazolidin-1-yl)-N-[(2S)-1,1,1-trifluorobutan-2-yl]-1-(2,4,6-trifluorophenyl)-1,4-dihydro-1,8-naphthyridine-3-carboxamide] | –
– | 9 nM | 100% | CC(C)C(NC(=O)c1cn(-c2c(F)cc(F)cc2F)c2nc(N3C[C@@H](O)CC3=O)ccc2c1=O)C(F)(F)F (mixture of isomers) [Example 526, 7-[(4S)-4-Hydroxy-2-oxopyrrolidin-1-yl]-4-oxo-N-[1,1,1-trifluoro-3-methylbutan-2-yl]-1-(2,4,6-trifluorophenyl)-1,4-dihydro-1,8-naphthyridine-3-carboxamide] | –
157 nM | – | – | O=C(NC12CC3CC(CC(C3)C1)C2)c1cn(-c2ccc(F)cc2F)c2nc(N3CC[S+]([O-])C3)ccc2c1=O (stereo not drawn) [Example 131, 1-(2,4-Difluorophenyl)-7-(1-oxido-1,3-thiazolidin-3-yl)-4-oxo-N-(tricyclo[3.3.1.1^3,7]dec-1-yl)-1,4-dihydro-1,8-naphthyridine-3-carboxamide] | –
– | 20 nM | 100% | O=C(NC(c1ccccc1Cl)C(F)(F)F)c1cn(-c2c(F)cc(F)cc2F)c2nc(N3CCNC3=O)ccc2c1=O (racemic) [Example 563, N-[1-(2-Chlorophenyl)-2,2,2-trifluoroethyl]-4-oxo-7-(2-oxoimidazolidin-1-yl)-1-(2,4,6-trifluorophenyl)-1,4-dihydro-1,8-naphthyridine-3-carboxamide] | –
32 nM | – | – | CCCC(NC(=O)c1cn(-c2ccc(F)cc2F)c2nc(N(C)C)ccc2c1=O)C(F)(F)F (racemic) [Example 144, rac-1-(2,4-Difluorophenyl)-7-(dimethylamino)-4-oxo-N-(1,1,1-trifluoropentan-2-yl)-1,4-dihydro-1,8-naphthyridine-3-carboxamide] | –
180 nM | – | – | O=C(NC(C(F)(F)F)C(F)(F)F)c1cn(-c2ccc(F)cc2F)c2nc(NCC(F)F)ccc2c1=O [Example 126, 7-[(2,2-Difluoroethyl)amino]-1-(2,4-difluorophenyl)-N-(1,1,1,3,3,3-hexafluoropropan-2-yl)-4-oxo-1,4-dihydro-1,8-naphthyridine-3-carboxamide] | –

Compound | EC50 [1] | EC50 [2] | Emax (M2-GIRK1/4 reporter cells) | other results
O=C(NC12CC3CC(CC(F)(C3)C1)C2)c1cn(-c2ccc(F)cc2F)c2nc(N3CC[C@H](F)C3)ccc2c1=O [Example 62, 1-(2,4-Difluorophenyl)-7-[(3S,)-3-fluoropyrrolidin-1-yl]-N-(3-fluorotricyclo[3.3.1.1^3,7]dec-1-yl)-4-oxo-1,4-dihydro-1,8-naphthyridine-3-carboxamide] | 17 nM | – | – | –
O=C(NC12CC3CC(CC(C3)C1)C2)c1cn(-c2ccc(F)cc2F)c2nc(N3CCCS3(=O)=O)ccc2c1=O [Example 167] | 47 nM | – | – | –
O=C(NC12CC3CC(CC(C3)C1)C2)c1cn(-c2ccc(F)cc2F)c2nc(NCCF)ccc2c1=O [Example 83, 1-(2,4-Difluorophenyl)-7-[(2-fluoroethyl)amino]-4-oxo-N-(tricyclo[3.3.1.1^3,7]dec-1-yl)-1,4-dihydro-1,8-naphthyridine-3-carboxamide] | 110 nM | – | – | –
